In patent publication US20060205733A1, “Endothelin a receptor antagonists in combination with phosphodiesterase 5 inhibitors and uses thereof” (Encysive Pharmaceuticals, priority 2004, published 2006):
Where a name gives a salt, the structure may show the parent alone. Read-outs that look alike come from different tables or passages of the source.

Legend:
ETB [1] = target: T1, ETB (Homo sapiens, UniProt P24530); conditions: read-out: Binding K1 (nM) to ETB; cited from earlier work
T1 sequence (P24530 27-442): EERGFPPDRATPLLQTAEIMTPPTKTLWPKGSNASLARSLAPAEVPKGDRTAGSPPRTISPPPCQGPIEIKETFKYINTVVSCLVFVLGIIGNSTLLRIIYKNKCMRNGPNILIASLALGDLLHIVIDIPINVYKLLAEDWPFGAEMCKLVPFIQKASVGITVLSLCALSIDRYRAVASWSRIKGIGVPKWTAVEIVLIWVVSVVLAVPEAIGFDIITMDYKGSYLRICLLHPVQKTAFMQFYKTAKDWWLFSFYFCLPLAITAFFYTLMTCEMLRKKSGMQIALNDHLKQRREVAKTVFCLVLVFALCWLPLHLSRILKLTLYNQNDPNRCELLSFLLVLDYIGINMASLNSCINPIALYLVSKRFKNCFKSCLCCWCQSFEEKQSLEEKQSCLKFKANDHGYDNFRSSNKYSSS

bile salt export pump = bile salt export pump (Homo sapiens, UniProt O95342); conditions: cited from earlier work
Sequence of bile salt export pump (O95342 whole entry): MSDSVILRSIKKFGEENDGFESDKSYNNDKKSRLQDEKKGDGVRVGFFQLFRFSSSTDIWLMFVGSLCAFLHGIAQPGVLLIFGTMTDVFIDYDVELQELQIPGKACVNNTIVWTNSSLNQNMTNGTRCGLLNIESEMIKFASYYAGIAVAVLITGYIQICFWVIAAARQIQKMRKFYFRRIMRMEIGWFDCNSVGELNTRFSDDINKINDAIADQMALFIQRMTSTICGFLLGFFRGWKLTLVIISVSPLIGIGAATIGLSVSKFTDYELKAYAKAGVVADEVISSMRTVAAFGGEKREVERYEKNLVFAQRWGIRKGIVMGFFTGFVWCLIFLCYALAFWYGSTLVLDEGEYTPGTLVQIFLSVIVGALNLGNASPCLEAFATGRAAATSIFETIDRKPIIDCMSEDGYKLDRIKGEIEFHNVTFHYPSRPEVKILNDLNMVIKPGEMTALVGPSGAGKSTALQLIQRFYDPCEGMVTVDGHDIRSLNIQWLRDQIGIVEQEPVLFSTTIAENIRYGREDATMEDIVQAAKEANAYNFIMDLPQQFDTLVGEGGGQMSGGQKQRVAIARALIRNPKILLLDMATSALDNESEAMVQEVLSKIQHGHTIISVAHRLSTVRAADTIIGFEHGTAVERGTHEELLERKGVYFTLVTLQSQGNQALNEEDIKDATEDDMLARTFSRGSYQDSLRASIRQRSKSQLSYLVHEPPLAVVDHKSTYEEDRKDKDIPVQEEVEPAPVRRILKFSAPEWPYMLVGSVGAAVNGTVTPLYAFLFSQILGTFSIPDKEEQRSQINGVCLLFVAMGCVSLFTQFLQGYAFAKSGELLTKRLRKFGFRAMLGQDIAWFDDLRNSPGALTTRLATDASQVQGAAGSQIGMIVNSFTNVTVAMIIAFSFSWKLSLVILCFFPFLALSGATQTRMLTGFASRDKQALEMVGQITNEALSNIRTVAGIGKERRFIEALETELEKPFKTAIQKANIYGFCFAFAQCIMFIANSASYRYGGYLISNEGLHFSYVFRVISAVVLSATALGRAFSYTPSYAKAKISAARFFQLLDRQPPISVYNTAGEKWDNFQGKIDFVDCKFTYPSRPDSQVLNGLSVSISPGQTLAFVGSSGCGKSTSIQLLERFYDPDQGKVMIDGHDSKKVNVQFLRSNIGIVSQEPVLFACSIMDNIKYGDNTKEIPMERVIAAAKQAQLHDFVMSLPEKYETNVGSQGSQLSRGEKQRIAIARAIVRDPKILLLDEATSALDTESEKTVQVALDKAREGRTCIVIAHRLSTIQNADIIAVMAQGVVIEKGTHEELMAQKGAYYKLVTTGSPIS

[2] = in vivo; cited from earlier work
cytochrome P450 enzymes = conditions: in vivo; cited from earlier work
ETA [3] = target: T2, ETA (Homo sapiens, UniProt P25101); conditions: cited from earlier work; for Selectivity: ETA versus ETB, Table 2
T2 sequence (P25101 21-427): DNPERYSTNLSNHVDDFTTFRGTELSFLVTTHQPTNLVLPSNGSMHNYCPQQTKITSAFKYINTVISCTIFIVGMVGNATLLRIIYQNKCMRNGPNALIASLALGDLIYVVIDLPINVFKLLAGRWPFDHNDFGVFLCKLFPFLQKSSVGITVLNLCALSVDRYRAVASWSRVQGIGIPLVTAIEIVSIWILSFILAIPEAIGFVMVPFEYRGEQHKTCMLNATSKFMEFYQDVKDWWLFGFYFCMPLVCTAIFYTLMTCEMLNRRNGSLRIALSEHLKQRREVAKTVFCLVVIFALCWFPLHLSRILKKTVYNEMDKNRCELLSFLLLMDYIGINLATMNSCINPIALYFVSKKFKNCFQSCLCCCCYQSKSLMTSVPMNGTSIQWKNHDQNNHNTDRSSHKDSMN

[4] = Pharmacokinetic drug interaction study, sitaxsentan and sildenafil; type: in vivo, human; conditions: for Cmax: healthy subjects; for Cmax / AUC0-t / AUC∞ / CL/F / t½ / λz / AUC(0-inf) / Vd/F / half-life: mean ± SD; for Tmax: median; for Vd/F: read-out: Vz/F; for half-life: read-out: t½ (converted); for Effect of sildenafil administration on sitaxsentan levels / pharmacokinetics: single 100 mg sildenafil on day 7 of 100 mg sitaxsentan daily
Protocol: A pharmacokinetic drug interaction study was performed using 24 individuals. In the study, a group of 24 normal, healthy volunteers participated in two treatment periods. […] During the other treatment period, the subjects received placebo for seven days and 100 mg of VIAGRA on the seventh day. Twelve subjects were randomly assigned to each treatment period. When the subjects finished one treatment period, they were switched to the other treatment period.
Samples were drawn (in duplicate) once on days 1, 3, 5 and 6; 15 times on day 7 and once again on day 8 for each treatment period. The samples were stored at a nominal temperature of −20° C. for a duration not exceeding 38 days. All samples were analyzed with a set of calibration standards and low, medium and high concentration Quality Control samples.

[5] = in vivo; cited from earlier work; remark: listed apart in the source
ETA [6] = target: T2, ETA; conditions: cited from earlier work
cytochrome P450 3A4 = target: T3, cytochrome P450 3A4 (Homo sapiens, UniProt P08684); assay: Cytochrome P450 3A4 inhibition in cultured hepatocytes; type: in vitro ADME
T3 construct: endogenous in cells; host or cells: cultured hepatocytes
T3 sequence (P08684 whole entry): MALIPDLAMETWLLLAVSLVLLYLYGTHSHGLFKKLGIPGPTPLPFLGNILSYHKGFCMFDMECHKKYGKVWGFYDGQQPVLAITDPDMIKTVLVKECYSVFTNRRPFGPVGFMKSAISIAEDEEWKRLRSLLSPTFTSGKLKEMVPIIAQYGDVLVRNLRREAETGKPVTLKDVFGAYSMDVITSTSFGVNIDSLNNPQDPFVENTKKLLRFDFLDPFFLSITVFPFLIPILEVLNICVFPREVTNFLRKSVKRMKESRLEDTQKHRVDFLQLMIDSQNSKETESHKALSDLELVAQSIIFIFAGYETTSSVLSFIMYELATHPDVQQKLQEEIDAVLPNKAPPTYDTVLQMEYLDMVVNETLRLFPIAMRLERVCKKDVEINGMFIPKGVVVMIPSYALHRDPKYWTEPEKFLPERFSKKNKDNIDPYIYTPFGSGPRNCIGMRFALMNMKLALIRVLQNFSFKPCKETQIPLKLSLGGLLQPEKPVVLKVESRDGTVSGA

[7] = in vivo; cited from earlier work; remark: listed apart in the source
ETA [8] = target: T4, ETA (Sus scrofa, UniProt Q29010); conditions: read-out: IC50, inhibition of 125I-labeled endothelin-1 binding, cited from earlier work
T4 construct: from tissue; host or cells: aortic smooth muscle, ventricle membranes, cultured aortic smooth muscle cells
T4 sequence (Q29010 21-427): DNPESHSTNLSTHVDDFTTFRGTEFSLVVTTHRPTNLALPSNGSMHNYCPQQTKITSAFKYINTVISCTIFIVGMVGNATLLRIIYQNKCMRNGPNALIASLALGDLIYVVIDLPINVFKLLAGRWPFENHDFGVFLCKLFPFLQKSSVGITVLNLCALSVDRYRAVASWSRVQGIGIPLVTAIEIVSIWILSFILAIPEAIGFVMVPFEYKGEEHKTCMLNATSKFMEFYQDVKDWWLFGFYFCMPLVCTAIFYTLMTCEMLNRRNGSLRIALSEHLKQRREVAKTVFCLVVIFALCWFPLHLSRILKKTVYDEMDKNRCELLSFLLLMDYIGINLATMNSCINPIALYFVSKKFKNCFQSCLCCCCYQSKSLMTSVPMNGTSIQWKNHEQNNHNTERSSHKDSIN

ETB [9] = target: T1, ETB; conditions: concentrations up to 100 μM; cited from earlier work
[10] = read-out: Binding K1 (nM) to ETA
[11] = single 100 mg oral sildenafil after 100 mg sitaxsentan daily for seven days
[12] = single 100 mg oral sildenafil after placebo daily for seven days
[13] = sitaxsentan versus placebo pretreatment, natural log-transformed data
[14] = human, plasma, po, 100 mg, single 100 mg oral sildenafil after 100 mg sitaxsentan daily for seven days
[15] = human, plasma, po, 100 mg, single 100 mg oral sildenafil after placebo daily for seven days

## Cc1noc(NS(=O)(=O)c2cccc3c(N(C)C)cccc23)c1C [BMS-182874]
ETB [1]
  Ki: > 50000 nM

## COc1ccccc1Oc1c(NS(=O)(=O)c2ccc(C(C)(C)C)cc2)nc(-c2ncccn2)nc1OCCO [Bosentan]
Bile salt export pump
  Effect on bile salt: Inhibits bile salt
[2]
  Metabolism: Through 3A4 and 2C9
  Route of elimination: Hepatic
  t1/2: 5 h
Cytochrome P450 enzymes
  Induction of cytochrome P450 enzymes: Causes inhibition,

## CCCCc1ccc2c(n1)[C@@H](c1ccc(OC)cc1C[C@H](C)C(=O)O)[C@H](C(=O)O)[C@H]2c1ccc2c(c1)OCO2 [J-104132]
ETB [1]
  Ki: 0.1 nM
ETA [3]
  Selectivity: 2.9
ETA [3]; [10]
  Ki: 0.034 nM

## COc1cc(OC)nc(O[C@H](C(=O)O)C(OC)(c2ccccc2)c2ccccc2)n1 [LU-135252]
ETB [1]
  Ki: 184 nM
ETA [3]
  Selectivity: 130
ETA [3]; [10]
  Ki: 1.4 nM

## CCCc1nn(C)c2c(=O)[nH]c(-c3cc(S(=O)(=O)N4CCNCC4)ccc3OCC)nc12 [N-Desmethyl Sildenafil]
[4]; in the presence of sitaxsentan
  Effect of sitaxsentan on levels of the active metabolite: No effects
[4]; [11]
  Cmax: 104 ± 40.8 ng/mL
  AUC0-t: 389 ± 105 ng·h/mL
  AUC∞: 425 ± 115 ng·h/mL
  CL/F: 529 ± 164 mL/min
  t½: 5.14 ± 2.13 h
  λz: 0.1544 ± 0.0552 h⁻¹
  Tmax: 1.00 h
[4]; [12]
  Cmax: 109 ± 53.1 ng/mL
  AUC0-t: 372 ± 107 ng·h/mL
  AUC∞: 440 ± 112 ng·h/mL
  CL/F: 524 ± 234 mL/min
  t½: 05.1 ± 1.63 h
  λz: 0.1506 ± 0.0569 h⁻¹
  Tmax: 1.00 h
[4]; [13]
  AUC0-t, geometric mean ratio (%) estimate: 112.43%
  AUC∞, geometric mean ratio (%) estimate: 105.78%
  CL/F, geometric mean ratio (%) estimate: 88.95%
  Cmax, geometric mean ratio (%) estimate: 100.70%
  Vz/F, geometric mean ratio (%) estimate: 94.89%

## COc1ccccc1Oc1c(NS(=O)(=O)c2ccc(C)cn2)nc(-c2ccnc(-c3nnn[nH]3)c2)nc1OCCO [Ro-61.1790]
ETB [1]
  Ki: > 130 nM
ETA [3]
  Selectivity: 1000
ETA [3]; [10]
  Ki: 0.13 nM

## CC1(C)CC[C@]2(C(=O)[O-])CC[C@]3(COC(=O)/C=C/c4cc([O-])ccc4NC(=O)/C=C/C(=O)O)C(=CC[C@@H]4[C@@]5(C)CCC(=O)C(C)(C)[C@@H]5CC[C@]43C)[C@@H]2C1.[Na+].[Na+] [S-0139]
ETB [1]
  Ki: 1000 nM
ETA [3]
  Selectivity: 1000
ETA [3]; [10]
  Ki: 1 nM

## CCCOc1ccc2c(c1)[C@@H](c1ccc(OC)cc1OCC(=O)O)[C@H](C(=O)O)[C@H]2c1ccc2c(c1)OCO2 [SB-209670]
ETA [3]
  Selectivity: 90

## CCCOc1ccc2c(c1)[C@@H](c1ccc(OC)cc1OCCO)[C@H](C(=O)O)[C@H]2c1ccc2c(c1)OCO2 [SB-217242]
ETA [3]
  Selectivity: 101

## CCCc1nn(C)c2c(=O)[nH]c(-c3cc(S(=O)(=O)N4CCN(C)CC4)ccc3OCC)nc12 [Sildenafil, 1-[[3-(6,7-dihydro-1-methyl-7-oxo-3-propyl-1H-pyrazolo[4,3-d]pyrimidin-5-yl)-4-ethoxyphenyl]sulfonyl]-4-methylpiperazine citrate]
[4]; human, plasma, po, 100 mg, single 100 mg oral sildenafil after 100 mg sitaxsentan daily for seven days, read-out: Cmax
  Cmax: 440 ± 232 ng/mL
[4]; [14]
  AUC(0-inf): 1650 ng·h/mL
  Vd/F: 34.8 ± 11.5 L
  half-life: 2.82 ± 0.45 h
[4]; human, plasma, po, 100 mg, single 100 mg oral sildenafil after 100 mg sitaxsentan daily for seven days, read-out: AUC0-t
  AUC0-t: 1580 ng·h/mL
[4]; human, plasma, po, 100 mg, single 100 mg oral sildenafil after 100 mg sitaxsentan daily for seven days, read-out: Tmax
  Tmax: 1.25 h
[4]; human, plasma, po, 100 mg, single 100 mg oral sildenafil after placebo daily for seven days, read-out: Cmax
  Cmax: 377 ± 208 ng/mL
[4]; [15]
  AUC(0-inf): 1300 ng·h/mL
  Vd/F: 43.6 ± 18.9 L
  half-life: 2.76 ± 0.45 h
[4]; human, plasma, po, 100 mg, single 100 mg oral sildenafil after placebo daily for seven days, read-out: AUC0-t
  AUC0-t: 1220 ng·h/mL
[4]; human, plasma, po, 100 mg, single 100 mg oral sildenafil after placebo daily for seven days, read-out: Tmax
  Tmax: 1 h
[4]; in the presence of sitaxsentan
  Increase of AUC∞ (area under the plasma concentration/time curve): 28%
  Increase of Cmax (maximum concentration): 18%
[4]; [11]
  CL/F: 147 ± 56.4 mL/min
  λz: 0.2514 ± 0.0364 h⁻¹
[4]; [12]
  CL/F: 184 ± 69.0 mL/min
  λz: 0.2584 ± 0.0444 h⁻¹

## Cc1cc2c(cc1CC(=O)c1sccc1S(=O)(=O)Nc1onc(C)c1Cl)OCO2 [Sitaxsentan]
ETB [1]
  Ki: > 4300 nM
[5]
  Effect on bilirubin: No effect.
Bile salt export pump
  Effect on bile salt: Does not accumulate
ETA [6]; Table 4
  Selectivity for ETA:ETB: 6500
ETA [6]; based upon in vitro receptor affinity ratios
  ETA:ETB selectivity ratio: 6500
ETA [6]; read-out: Intrinsic potency to ETA (Ki)
  Ki: 0.45 nM
[2]
  Metabolism: Through 3A4 and 2C9
  t1/2: 10 h
Cytochrome P450 enzymes
  Induction of cytochrome P450 enzymes: No induction
ETA [3]
  Selectivity: 10,000
[4]; listed as sitaxsentan
  Effect of sildenafil administration on sitaxsentan levels / pharmacokinetics: did not alter sitaxsentan levels

## Cc1ccc(-c2c(NS(=O)(=O)c3ccc(C(C)(C)CO)cc3)ncnc2OCCOc2ncc(Br)cn2)cc1 [T-0201]
ETA [3]; [10]
  Ki: 0.015 nM

## Cc1cc2c(cc1CC(=O)c1sccc1S(=O)(=O)Nc1onc(C)c1Cl)OCO2 [THELIN]
Cytochrome P450 3A4
  Cytochrome P450 3A4 inhibition: weak
ETA [6]
  Selectivity as an antagonist for ETA compared to ETB: approximately 6,500 fold
[7]
  Side effects: liver dysfunction (increased ALT and AST), headache, edema, constipation, nasal congestion and flushing
[4]
  Effect of sildenafil administration on sitaxsentan levels / pharmacokinetics: does not appear to impact

## COc1nc(C)cnc1NS(=O)(=O)c1cccnc1-c1ccc(CC(C)(C)C(=O)O)cc1 [ZD-1811]
ETB [1]
  Ki: > 2000 nM
ETA [3]
  Selectivity: 1500
ETA [3]; estimated from the IC∞ value, read-out: Binding K1 (nM) to ETA, K1 estimated from the IC∞ value
  Ki: 1.3 nM

## FR-139317
ETB [1]
  Ki: 7300 nM

## cyclo(D-Glu-L-Ala-allo-D-Ile-L-Leu-D-Trp) [BE-18257B]
ETA [8]; aortic smooth muscle
  IC50: 1400 nM
ETA [8]; cultured aortic smooth muscle cells
  IC50: 500 nM
ETA [8]; ventricle membranes
  IC50: 800 nM
ETB [9]
  Inhibition of binding to receptors in tissues in which ETB predominates: fails to inhibit binding
